Two compounds from US11970497B2, “Tricyclic AKR1C3 dependent KARS inhibitors” (Novartis AG, priority 2019, dated 2024) can be followed below.

Molecules are shown by their SMILES.

Common to all, as to assay: Expanded lung cancer cell line proliferation assay
Type in all cases: cell-based

The test system of one test is COLO-699. The following applies: COLO-699, 72 h, average of PrestoBlue and Cell Titer Glo; AKR1C3 expression: no data available; read-out: Absolute Qualified AC50. The text has this: (§1) Cellular Proliferation Assay to Assess Compound Activity in an Expanded Panel of 57 NRF2 Pathway Mutant and Wild Type Lung Cancer Cell Lines.
(§2) Both the PrestoBlue Cell Viability Reagent and Cell Titer Glo were multiplexed together as the final assay readout. PrestoBlue is a cell permeable resazurin-based solution that utilizes the reducing power of living cells to quantitatively measure their proliferation. Cell Titer Glo measures the amount of ATP present, an indicator of metabolically active cells.
(§3) Expanded Lung Cancer Cell Line Proliferation Assay Outline, Analysis and Profiling Results
(§4) Cells were seeded into 384 well assay plates (Greiner Bio-One, Catalog #781080) using the Thermo Scientific Matrix WellMate microplate dispenser and Thermo Scientific Matrix WellMate small bore disposable tubing cartridges (Catalog #201-30002) in 30 μl of growth media (RPMI-1640 supplemented with 10% fetal bovine serum and 1% penicillin/streptomycin) per well (1000 to 2000 cells/well depending on doubling time). Following cell plating, assay plates were placed into tissue culture incubator at 37° C./5% CO2 overnight. The next day one assay plate for each cell line was used for a Day 0 Cell Titer Glo and PrestoBlue readout. 3 μl of PrestoBlue Cell Viability Reagent (Thermo Scientific, Catalog #A13262) was added to each well and then assay plates were incubated at 37° C./5% CO2 for 30 minutes prior to fluorescence readout on the EnVision 2105 multimode plate reader (Perkin Elmer). Following the PrestoBlue readout 18 μl of Cell Titer Glo (Promega, Catalog #G7572) was then added to each well, allowing plates to incubate at room temperature for 10 minutes prior to luminescence readout on the EnVision. Compound was then added to the remaining assay plates (each cell line run in triplicates) using the Labcyte Inc Echo 555 acoustic liquid handler. Compounds were arrayed into a Labcyte Inc Echo qualified 384 well LDV microplate (Cat #LP-0200-GNF10). Compounds were serially diluted 1:3.16 to generate an 8 point dose response for a final top concentration of 1 μM. DMSO (0.3%) was used as the neutral control (NC) and MG132 (30 μM) was used as the active control (AC). 90 nl of compounds were added to 30 μl of cells using the Labcyte Inc Echo 555 acoustic liquid handler for a final DMSO assay concentration of 0.3%. Following compound addition, assay plates were spun down in a tabletop centrifuge at 500 rpm for 1 minute and then placed into tissue culture incubator at 37° C./5% CO2 for 72 h. Following the 72 h incubation, all assay plates were readout using PrestoBlue and Cell Titer Glo using the same conditions previously described for the Day 0 readout. The Day 0 readout (untreated cells) was used to compare to the 72 h DMSO treated samples on each assay plate as a way of tracking each cell line's fold growth. NC1 control based normalization was used for data analysis in Helios, which incorporates the DMSO neutral control (NC) and MG132 active control (AC) for generating dose response curves that are then used to calculate the Absolute Qualified AC50 calls for each compound and cell line.
(§5) NC1 normalization calculation model: NC1: xn=±(x−NC)/(AC−NC)
(§6) +/− is set by the inhibition type parameter setting where NC and AC are averages (mean or median) over the corresponding NC and AC well values. The Qualified Absolute AC50 values for Compound 36 and Compound 40 are listed in the table below and are represented as the average activity in both the PrestoBlue and Cell Titer Glo assay readouts.
(§7) Absolute Qualified AC50 Values Listed Below are a Representation of Each Compounds' Average Activity in Both the PrestoBlue and Cell Titer Glo Assay Readouts.
A general note: In ATP-based viability assays light output follows the ATP content of the culture.

A further test deals with DV-90. The settings on record: Homo sapiens; DV-90, 72 h, average of PrestoBlue and Cell Titer Glo; AKR1C3 48.9 TPM; read-out: Absolute Qualified AC50.
From the text: as §1, §2, §3, §4, §5, §6, §7

A further test has as its system EBC-1. The settings on record: Homo sapiens; EBC-1, 72 h, average of PrestoBlue and Cell Titer Glo; AKR1C3 92.4 TPM; read-out: Absolute Qualified AC50.
From the text: as §1, §2, §3, §4, §5, §6, §7

In another test the test system is HCC2108. The settings on record: HCC2108, 72 h, average of PrestoBlue and Cell Titer Glo; AKR1C3 0.5 TPM; read-out: Absolute Qualified AC50.
From the text: as §1, §2, §3, §4, §5, §6, §7

A further test has as its system HCC78. The following applies: Homo sapiens; HCC78, 72 h, average of PrestoBlue and Cell Titer Glo; AKR1C3 3 TPM; read-out: Absolute Qualified AC50.
From the text: as §1, §2, §3, §4, §5, §6, §7

The subject of another test is HCC95. The settings on record: Homo sapiens; HCC95, 72 h, average of PrestoBlue and Cell Titer Glo; AKR1C3 939.1 TPM; read-out: Absolute Qualified AC50.
From the text: as §1, §2, §3, §4, §5, §6, §7

The next test deals with LCLC-103H. The settings on record: Homo sapiens, 72 h, average of PrestoBlue and Cell Titer Glo, AKR1C3 2.6 TPM, read-out: Absolute Qualified AC50.
From the text: as §1, §2, §3, §4, §5, §6, §7

The test system of a further test is NCI-H1568. The following applies: NCI-H1568, 72 h, average of PrestoBlue and Cell Titer Glo; AKR1C3 2.8 TPM; read-out: Absolute Qualified AC50.
From the text: as §1, §2, §3, §4, §5, §6, §7

For the next test, the system named is NCI-H2122. The settings on record: Homo sapiens; NCI-H2122, 72 h, average of PrestoBlue and Cell Titer Glo; AKR1C3 1507.5 TPM; read-out: Absolute Qualified AC50.
From the text: as §1, §2, §3, §4, §5, §6, §7

The subject of the next test is NCI-H358. The settings on record: Homo sapiens; NCI-H358, 72 h, average of PrestoBlue and Cell Titer Glo; AKR1C3 5.6 TPM; read-out: Absolute Qualified AC50.
From the text: as §1, §2, §3, §4, §5, §6, §7

Another test relates to NCI-H460. The settings on record: Homo sapiens; NCI-H460, 72 h, average of PrestoBlue and Cell Titer Glo; AKR1C3 865.3 TPM; read-out: Absolute Qualified AC50.
From the text: as §1, §2, §3, §4, §5, §6, §7

In another test the test system is NCI-H661. The following applies: Homo sapiens; NCI-H661, 72 h, average of PrestoBlue and Cell Titer Glo; AKR1C3 3 TPM; read-out: Absolute Qualified AC50.
From the text: as §1, §2, §3, §4, §5, §6, §7

The test system of another test is NCI-H810. The settings on record: Homo sapiens; NCI-H810, 72 h, average of PrestoBlue and Cell Titer Glo; AKR1C3 52.5 TPM; read-out: Absolute Qualified AC50.
From the text: as §1, §2, §3, §4, §5, §6, §7

In the next test the test system is PC-14. The settings on record: Homo sapiens; PC-14, 72 h, average of PrestoBlue and Cell Titer Glo; AKR1C3 1466.3 TPM; read-out: Absolute Qualified AC50.
From the text: as §1, §2, §3, §4, §5, §6, §7

By AC50 is commonly meant the concentration at which the activity in the assay is half-maximal. As for `O=C1CC2(CCN(C(=O)NCc3ccc(F)cc3)CC2)Nc2ccc(F)cc21` [Example 40], the AC50 is greater than 1000 nM in the test on COLO-699; 159 nM with DV-90; greater than 1000 nM in the test on EBC-1; greater than 1000 nM in the test with HCC2108; greater than 1000 nM in the test with HCC78; 69 nM in the test with HCC95. The AC50 in the test on LCLC-103H is greater than 1000 nM; in the test with NCI-H1568, greater than 1000 nM; in the test with NCI-H2122 it was 56 nM; in the test on NCI-H358 it was greater than 1000 nM; with NCI-H460, 50 nM; with NCI-H661 it was greater than 1000 nM. Besides, the values for the concentration at half-maximal activity (AC50) in the test on NCI-H810 and in the test on PC-14 were 983 nM and 92 nM, respectively.

`CN1c2ccc(F)cc2C(=O)CC12CCN(C(=O)NCc1ccc(F)c(NCCO)c1)CC2` [Example 36, 6′-fluoro-N-(4-fluoro-3-((2-hydroxyethyl)amino)benzyl)-1′-methyl-4′-oxo-3′,4′-dihydro-1′H-spiro[piperidine-4,2′-quinoline]-1-carboxamide]: the AC50 was greater than 1000 nM in the test on COLO-699; 347 nM in the test on DV-90; greater than 1000 nM in the test with EBC-1; greater than 1000 nM in the test on HCC2108; greater than 1000 nM in the test on HCC78; 287 nM with HCC95. Moreover, the AC50 in the test with LCLC-103H is greater than 1000 nM; in the test on NCI-H1568, greater than 1000 nM; in the test with NCI-H2122, 258 nM; in the test with NCI-H358, greater than 1000 nM; with NCI-H460 it was 268 nM; in the test with NCI-H661, greater than 1000 nM. Also, the AC50 was greater than 1000 nM with NCI-H810 and 308 nM in the test with PC-14.
